Data: PMC9133036 (Nature Communications, 2022)
Positions count from the first letter of the chain named. “And” between values parts separate entries of the source, which are not always exact repeats. Equal values may be shown once. Read-outs that look alike come from different tables or passages of the source.

Columns and labels:
[1] = biological target: T1, OX2R T111S/T135A (Homo sapiens, UniProt O43614, T111S/T135A); assay: IP accumulation assay, OX2R T111S/T135A; assay type: cell-based; settings: for EC50: IP accumulation
T1 construct: FLAG; expressed in transfected cells; host or cells: HEK293
T1 sequence (O43614 1-444 T111S/T135A): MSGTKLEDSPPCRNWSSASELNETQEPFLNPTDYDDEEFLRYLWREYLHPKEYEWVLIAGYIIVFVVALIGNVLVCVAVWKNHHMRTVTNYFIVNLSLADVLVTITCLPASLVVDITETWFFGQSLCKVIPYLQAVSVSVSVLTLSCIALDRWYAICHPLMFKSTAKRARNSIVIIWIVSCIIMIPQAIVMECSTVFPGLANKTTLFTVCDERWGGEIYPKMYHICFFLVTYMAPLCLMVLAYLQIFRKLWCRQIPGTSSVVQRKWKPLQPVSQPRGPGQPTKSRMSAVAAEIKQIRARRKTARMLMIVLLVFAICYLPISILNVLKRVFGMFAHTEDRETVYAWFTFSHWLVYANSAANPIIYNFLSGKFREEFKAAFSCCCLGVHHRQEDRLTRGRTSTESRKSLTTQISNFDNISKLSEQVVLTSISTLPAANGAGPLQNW
From the text: The IP assay was adapted from a prior precedent. HEK293 cells were maintained in DMEM-high glucose (Millipore Sigma) supplemented with 5% fetal bovine serum (Corning) and penicillin-streptomycin (Millipore Sigma). Receptor constructs used were the full-length wild-type (or mutant) human OX1R and OX2R sequences cloned into pCDNA3. To enhance the Emax in the IP assay, a plasmid encoding full-length human Gαq subunit[66] was co-transfected into HEK293 cells with plasmids encoding orexin receptor constructs using Lipofectamine 3000 (Thermo Fisher). 24 h after transfection, the cells were plated on poly-D-lysine coated (Millipore Sigma) tissue culture-treated 96 well white plates with clear bottoms (Perkin Elmer) at 30,000 cells per well in Inositol-free DMEM (MP Biomedicals) supplemented with 5% fetal bovine serum, 4 mM L-glutamine (Millipore Sigma), penicillin-streptomycin, and about 5 uCi (5 ul) per ml myo-[2-3H] inositol (Perkin Elmer). The following day, the media was replaced with agonists that were diluted in HBSS (Millipore Sigma) containing 10 mM lithium chloride (Millipore Sigma) and incubated at 37 °C for 45 min. Then agonists were removed and cells were lysed on ice for 30 min with 10 mM formic acid (Millipore Sigma). 1.25 mg of poly-lysine coated YSI SPA beads (Perkin Elmer) was added to each well. The plates were mixed on an orbital shaker for 30 min. The plates were read on a MicroBeta scintillation counter (Perkin Elmer) the following day. IP accumulation assays on different constructs were performed in n ≥ 3 independent experiments (each done in duplicate), where n is shown in Supplementary Table 2.

[2] = biological target: T2, human OX2R wild type (Homo sapiens, UniProt O43614); assay: β-arrestin PathHunter assay, OX2R WT; assay type: cell-based; set-up: expressed in transfected cells; host or cells: CHO-K1 stably expressing EA β-arrestin2; settings: listed as OxB
T2 sequence (O43614 1-444): T1 sequence (O43614 1-444 T111S/T135A) with S111T, A135T
Description: β-Arrestin recruitment activity was measured by using the PathHunter system (DiscoveRX) according to the manufacturer’s instruction. Receptor constructs used were the full-length wild-type (or mutant) human OX2R sequences cloned into pCMV-ProLink (DiscoveRX). […] Cells were transfected with plasmids encoding wild type or each mutant ProLink-tagged human OX2R using FuGENE HD (Promega). […] Detection reagent was added and incubated for 1 h at room temperature. Luminescent signal was detected using an EnVision plate reader (PerkinElmer). β-arrestin assays on different constructs were performed in two or three independent experiments (each done in quadruplicate). Dose response curves (shown in Supplementary Fig. 8) were fitted to the three-parameter model ‘log(agonist) vs response’ in GraphPad Prism to determine pEC50 values.

Row | Compound | EC50 ([1]; pEC50 ± SEM, read-out: pEC50 (converted)) | EC50 ([1]; read-out: EC50) | % IP accumulation ([1]; TAK-925 conc (log, M) -4.00) | % IP accumulation ([1]; TAK-925 conc (log, M) -4.48) | % IP accumulation ([1]; TAK-925 conc (log, M) -4.95) | % IP accumulation ([1]; TAK-925 conc (log, M) -5.43) | % IP accumulation ([1]; TAK-925 conc (log, M) -5.91) | % IP accumulation ([1]; TAK-925 conc (log, M) -6.39) | % IP accumulation ([1]; TAK-925 conc (log, M) -8.29) | % IP accumulation ([1]; TAK-925 conc (log, M) -8.77) | Emax ([1]; relative to OX2R WT/TAK-925) | beta-arrestin recruitment fold change ([2]; OxB concentration -6.00 (log, M)) | beta-arrestin recruitment fold change ([2]; OxB concentration -6.52 (log, M)) | beta-arrestin recruitment fold change ([2]; OxB concentration -7.00 (log, M)) | beta-arrestin recruitment fold change ([2]; OxB concentration -7.52 (log, M)) | beta-arrestin recruitment fold change ([2]; OxB concentration -8.00 (log, M)) | beta-arrestin recruitment fold change ([2]; OxB concentration -8.52 (log, M)) | beta-arrestin recruitment fold change ([2]; OxB concentration -9.00 (log, M)) | beta-arrestin recruitment fold change ([2]; OxB concentration -10.00 (log, M))
1 | COC(=O)N1CCC[C@H](NS(C)(=O)=O)[C@@H]1CO[C@H]1CC[C@@H](c2ccccc2)CC1 [TAK-925, methyl (2R,3S)−3-[(methylsulfonyl)amino]−2-{[(cis−4-phenylcyclohexyl)oxy]methyl}piperidine-1-carboxylate] | 3.98 µM | 3.6 µM | 75.61% and 80.32% and 68.16% | 79.41% and 78.58% and 59.24% | 63.00% and 60.94% and 53.37% | 45.74% and 44.90% and 36.03% | 30.51% and 19.14% and 15.90% | 18.69% and 18.10% and 13.23% | 6.54% and 0.00% | 0.00% and 2.28% and 1.85% | 78 |  |  |  |  |  |  |  | 
2 | orexin B |  |  |  |  |  |  |  |  |  |  |  | 25.382 fold and 21.415 fold and 21.711 fold and 14.809 fold | 25.694 fold and 21.531 fold and 23.664 fold and 15.569 fold | 27.509 fold and 22.224 fold and 24.930 fold and 18.908 fold | 19.878 fold and 18.553 fold and 19.712 fold and 17.639 fold | 16.213 fold and 13.992 fold and 16.040 fold and 14.141 fold | 11.509 fold and 10.398 fold and 11.514 fold and 8.169 fold | 4.809 fold and 5.512 fold and 5.245 fold and 5.387 fold | 1.518 fold and 1.553 fold and 1.554 fold and 2.080 fold
